One compound from publication PMC5620277, “The histone methyltransferase EZH2 as a druggable target in SHH medulloblastoma cancer stem cells” (Oncotarget, 2017) can be followed below.

Assay [1] concerns mMB-SLCs. Description: Western Blot of H3K27me3, PCNA, cleaved caspase 3 in mMB-SLCs. It is filed as cell-based, mouse. The settings on record: 48 h. How it is done: Afterwards, we tested the ability of MC3629 (at 0.5, 5, and 25 μM) to inhibit the EZH2 enzymatic activity on a cell-based assay in vitro. The lower significant MC3629 dosage to decrease the H3K27me3 level in MB-SLCs was 5 μM (Figure 2C).
(§1) To evaluate cell viability cells were plated at a density of 5×10^3 cells/well in 96-well plates and were incubated with MTS solution (CellTiter 96® AQueous One Solution Promega).
(§2) Western blots were performed according to standard procedures. Briefly, protein lysates were prepared using RIPA buffer with fresh protease inhibitors. Lysates were separated on SDS polyacrylamide gels. Proteins were transferred on nitrocellulose membrane (0.45 micron) (PerkinElmer). Membranes were blocked for 1 h at room temperature in 5% nonfat dry milk and incubated overnight at 4°C with antibodies against EZH2 (4905S Cell signaling), H3K27me3 (07-449 Millipore), PCNA (2586 Cell signaling), ACTIN (I-19 sc-1616; Santa Cruz Biotechnology), GAPDH (ab9484, Abcam), cleaved CSP-3 (D-175 9661S; Cell Signaling) and H3 (ab1971, Abcam). HRP-conjugated secondary antibodies (Santa Cruz Biotechnology) were used in combination with enhanced chemiluminescence (ECL Amersham).
Background: Immunoblotting shows a protein as a band on a membrane.

The next assay deals with T1, EZH2/PRC2 (Homo sapiens, UniProt Q15910).
T1 construct: (amino acids 2-end) with N-terminal His tag; His tag (N); host or cells: baculovirus expression system
The assay can be described thus: EZH2/PRC2 cell free enzymatic assay (3H-SAM, filter-paper detection). Format: biochemical. How it is done:
(§3) MC3629 was tested in the cell free enzymatic assay (EZH2/PRC2) in 10-dose IC50 mode with 2-fold serial dilution starting from 400 μM solution, using various histone substrates (histone H3/H4 octamer, histone H3/H4 tetramer, histone H3, and core histone) and SAM as the co-substrate. […] (Figure 2B, and Supplementary Figure 2).
Reagents: Reaction buffer; 50 mM Tris-HCl (pH 8.0), 50 mM NaCl, 1 mM EDTA, 1 mM DTT, 1 mM PMSF, 1% DMSO. Reaction Conditions: EZH2: Complex of human EZH2 (GenBank Accession No. NM_004456), (amino acids 2-end) with N-terminal His tag, MW= 86 kDa, human EED (NM_003797) (a-a 2-end) with N-terminal Flag tag, MW= 51 kDa, human SUZ12 (NM_015355) (a-a 2-end) with N-terminal His tag, MW = 87 kDa, Human AEBP2 (NM_153207) (a-a 2-end) with N-terminal His tag, MW= 53 kDa, and human RbAp48 (NM_005610) (a-a 2-end) with N-terminal His tag, MW = 48 kDa, co-expressed in baculovirus expression system. Substrate: 5 μM histone H3/H4 tetramer. Methyl donor: 1 μM S-adenosyl-L-[methyl-^3H]methionine (^3H-SAM). Enzyme: 100 nM EZH2 complex. Reaction Procedure: the indicated substrate was dissolved in freshly prepared Reaction Buffer; EZH2 was delivered into the substrate solution and mixed gently. The compound was dissolved in DMSO to a stock of 20 mM and was tested in a 10-dose IC50 mode with 2-fold serial dilution starting at 400 μM. The compound was delivered in DMSO into the EZH2 reaction mixture by using Acoustic Technology (Echo 550, LabCyte Inc. Sunnyvale, CA) in nanoliter range, and incubated for 15 min; ^3H-SAM was delivered into the reaction mixture to initiate the reaction; the reaction mixture was incubated for 1 h at 30°C and then delivered to filter-paper for detection; data were analyzed using Excel and GraphPad Prism 5 software for IC50 curve fits. For SAM competition experiments, the same procedure was used with different SAM concentration (1, 2.5. 5, and 10 μM) and H3/H4 octamer as the substrate.

Another assay deals with neural stem cells (NSC). The assay can be described thus: Western Blot of H3K27me3 and PCNA in neural stem cells (non-transformed cells). The settings on record: 5 μM, 48 h. Format: cell-based. How it is done:
as §2

Assay [2] concerns mMB-SLCs. The assay can be described thus: Cell viability, MTS assay, mMB-SLCs. Format: cell-based, mouse. The protocol: In both cell lines, we determined the lowest useful dose of MC3629 (5 μM) and the minimum effective time (48 h) (Figure 2D, 2E and Supplementary Figure 4A and 4B for data at 24 and 72 h). We next evaluated the performance of MC3629 on MB-SLCs in terms of cell viability in regards to other EZH2i in use, confirming the dose selection (Supplementary Figure 4C).
as §1

Another assay concerns the target DNMT1 (Homo sapiens, UniProt P26358). Description: Methyltransferase panel: DNMT1. It is filed as biochemical. The settings on record: substrate Poly dI-dC. How it is done: as §3
(§4) The appropriate methyltransferase (MT) substrate (0.05 mg/ml core histone for EZH1 complex, 0.05 mg/ml oligonucleosomes for DOT1L, 5 μM histone H3 (1-21) peptide for G9a, 0.05 mg/ml nucleosomes for MLL1 complex, 0.05 mg/ml core histone for SET7/9, 5 μM histone H4 for PRMT1, and 0.001 mg/ml poly(dI-dC) for DNMT1) was added in freshly prepared Reaction Buffer (50 mM Tris-HCl (pH 8.5), 5 mM MgCl2, 50 mM NaCl, 0.01% Brij35, 1 mM DTT, 1% DMSO). The MT enzyme was delivered into the substrate solution and the mixture was mixed gently. Afterwards, the tested compound dissolved in DMSO was delivered into the enzyme/substrate reaction mixture by using Acoustic Technology (Echo 550, LabCyte Inc. Sunnyvale, CA) in nanoliter range, and 1 μM ^3H-SAM was also added into the reaction mixture to initiate the reaction. The reaction mixture was incubated for 1 h at 30°C and then it was delivered to filter-paper for detection. The data were analyzed using Excel and GraphPad Prism software for IC50 curve fits (for EZH1 complex).

A further assay concerns the target EZH1 complex (Homo sapiens, UniProt Q92800). The assay can be described thus: Methyltransferase panel: EZH1 complex. It is filed as biochemical. The protocol:
as §3, §4

Another assay addresses T2, SET7/9 (Homo sapiens, UniProt Q8WTS6).
T2 sequence (Q8WTS6 1-366): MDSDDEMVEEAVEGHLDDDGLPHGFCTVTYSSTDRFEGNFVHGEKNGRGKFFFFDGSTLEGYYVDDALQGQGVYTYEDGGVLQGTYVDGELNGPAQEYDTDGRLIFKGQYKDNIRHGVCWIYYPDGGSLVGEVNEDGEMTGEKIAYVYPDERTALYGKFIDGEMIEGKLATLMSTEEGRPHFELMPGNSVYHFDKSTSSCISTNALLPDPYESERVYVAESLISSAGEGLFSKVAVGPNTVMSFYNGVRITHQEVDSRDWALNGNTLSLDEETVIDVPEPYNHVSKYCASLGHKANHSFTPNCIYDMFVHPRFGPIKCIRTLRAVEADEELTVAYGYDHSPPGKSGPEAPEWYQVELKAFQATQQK
The assay can be described thus: Methyltransferase panel: SET7/9. The settings on record: substrate histone H3/H4 octamer. It is filed as biochemical. How it is done: as §3, §4

Read-outs that look alike come from different tables or passages of the source.

As a reminder, the inhibition is how much of the control response was suppressed. For the compound `Cc1cc(C)c(CNC(=O)c2cnn(-c3ccccc3)c2C)c(=O)[nH]1` [MC3629, N-((4,6-dimethyl-2-oxo-1,2-dihydropyridin-3-yl)methyl)-5-methyl-1-phenyl-1H-pyrazole-4-carboxamide], the “H3K27me3 and PCNA protein levels” value in the assay on mMB-SLCs [1] (mMB-SLCs, 5 μM) is on record as “significantly impaired”; with neural stem cells (NSC), “did not observe any effects”. In addition, in the assay with mMB-SLCs [1] (mMB-SLCs, 5 μM), the “apoptosis, level of cleaved caspase 3” value is reported as “induced apoptosis”. For the same compound, the “lower significant dosage to decrease the H3K27me3 level” value with mMB-SLCs [1] (tested at 0.5, 5, 25 μM) came out at 5 µM. Further, on EZH2/PRC2 (histone H3/H4 octamer substrate, SAM 1, 2.5, 5, 10 μM), the “mechanism of inhibition, SAM competition experiments” value is given as “SAM-dependent mechanism of inhibition”. In addition, the IC50 at EZH2/PRC2 (histone H3/H4 tetramer substrate, value printed in Figure 2B, read-out: IC50, EZH2/PRC2) is 5.27 µM; on EZH2/PRC2 (range over histone substrates (histone H3/H4 octamer, H3/H4 tetramer, histone H3, core histone), SAM co-substrate, 10-dose, 2-fold dilution from 400 μM, read-out: IC50 values, EZH2/PRC2) it was 5.27 to 15.4 µM; against EZH1 complex (footnote of Supplementary Table 1) it was 138 µM. Further, the “minimum effective time, cell viability” value in the assay with mMB-SLCs [2] came to 48 h. The “lowest useful dose, cell viability” value in the assay with mMB-SLCs [2] (dose- and time-dependent experiments) worked out at 5 µM. Besides, the inhibition at 200 µM at DNMT1 amounted to 0%; at EZH1 complex (200 μM, substrate histone H3/H4 octamer), 62.4%; at SET7/9, 5.2%.
